Source: patent publication US20260191852A1, “COMBINATION OF SUBSTITUTED 2,4 DIAMINO-QUINOLINE COMPOUNDS AND MEK INHIBITORS FOR USE IN THE TREATMENT OF LIVER CANCERS” (GENFIT, priority 2022, published 2026)
Counter-ions that a name gives are not always drawn. Like-named read-outs stand apart in the source and are kept apart here.

Assays:
[1] = test system: intrahepatic cholangiocarcinoma cell line HuCCT1 (KRAS G12D)
Method: (§1) Cell culture: HuCCT1 cell line harboring KRAS G12D mutation (JCRB Cell Bank #JCRB0425) was maintained in RPMI medium (Dutscher #L0498-500) containing 1% penicillin streptomycin (Dutscher #P06-07100) and 10% fetal bovine serum (Dutscher #SV30160.03C) and were cultured at 37° C. with 5% CO2 in humidified cells incubator.
(§2) HuCCT1 cells were plated at 4.10^3 cells per well in Greiner Bio-one pClear® P96 well plates (Dutscher #655098) with 80 μL of culture media. […] Cell viability was assessed 72 hours post molecular treatment by CellTiter-Glo® luminescent cell viability assay (Promega #G7573) according to the manufacturer protocol and using an Infinity F200 Pro luminometer (Tecan). […] IC50 values were determined as the dose of compound required to reduce luminescent values to 50% of the reference signal obtained for untreated cell cultures. Raw data were analyzed using GraphPad Prism Software v9.4 (GraphPad Software, Inc. La Jolla, CA). For all experiments, analyzed data are shown as mean of triplicate and four independent experiments.

[2] = test system: intrahepatic cholangiocarcinoma cell line HuCCT1 (KRAS G12D); assay: HuCCT1 cell viability assay (CellTiter-Glo), single compounds, 72 hours; settings: for IC50: Homo sapiens, HuCCT-1, 72 h, read-out: Cell Viability assay IC50
Method: as §1, §2

[3] = test system: intrahepatic cholangiocarcinoma cell line HuCCT1 (KRAS G12D); assay: Combination effect of binary drug-drug associations on HuCCT1 cell viability, Bliss independence model (MacSynergy II); assay type: cell-based; settings: growth inhibition of HuCCT1
Method: The HuCCT1 cell viability assay with binary drug-drug association was performed as described in example 1. The drug-drug binary associations of compounds 2-2+Trametinib and HCQ+Trametinib were tested in a checkerboard fashion in Greiner Bio-one pClear® 96-well plates (Dutscher #655098). The concentration ranges were selected nearby and surrounding the IC50 values of each individual compound. Compound 2-2 in combination with Trametinib was tested at 1.28 μM, 1.6 μM, 2.0 μM, 2.5 μM and 3.125 μM. HCQ [747-36-4] in combination with Trametinib was tested at 15 μM, 20 μM, 30 μM, 45 μM, 60 μM. Trametinib (Selleckchem #S2673, [871700-17-3]) in combination with compound 2-2 or in combination with HCQ was tested in both cases at 0.005 μM, 0.03 μM, 6.0 μM, 15 μM, 30 μM, 60 μM, 90 μM. The combination effects of both binary drug-drug association compound 2-2+Trametinib and HCQ+Trametinib were analyzed with two softwares: MacSynergy™ II (1) and SynergyFinder. (2) MacSynergy™ II was used to analyze the combination effect according to the Bliss independence model which assumes probabilistic statistical independence between the combined compounds.(3) The main assumption of the Bliss independence principle is that two or more combined drugs act independently from each other with distinct mode of action. SynergyFinder was used to analyze the combination effect according to the Loewe additivity model which is based on its principle of a sham drug-drug combination which assumes no interaction when a compound is combined with itself.(4)
The combination effects of the drug-drug associations of compound 2-2+Trametinib and hydroxychloroquine+Trametinib were evaluated according to the Bliss independence model using MacSynergy™ II for their respective capacities to inhibit the growth of intrahepatic cholangiocarcinoma cell line HuCCT1 (Table 4).
The HuCCT1 cell viability assay with binary drug-drug association was performed as described in example 1. The binary drug-drug associations of compounds 2-2+Cobimetinib and HCQ+Cobimetinib were tested in a checkerboard fashion in Greiner Bio-one pClear® 96-well plates (Dutscher #655098). The concentration ranges were selected nearby and surrounding the IC50 values of each individual compound. Compound 2-2 in combination with Cobimetinib was tested at 1.28 μM, 1.6 μM, 2.0 μM, 2.5 μM and 3.125 μM. HCQ [747-36-4] in combination with Cobimetinib was tested at 15 μM, 20 μM, 30 μM, 45 μM, 60 μM. Cobimetinib (Selleckchem #S8041, [934660-93-2]) in combination with compound 2-2 or in combination with HCQ was tested in both cases at 0.10 μM, 1.0 μM, 10 μM, 30 μM, 60 μM, 80 μM, 100 μM. The combination effects of both binary drug-drug association compound 2-2+Cobimetinib and HCQ+Cobimetinib were analyzed with two softwares: MacSynergy™ II (1) and SynergyFinder (2). […]
The combination effects of the binary drug-drug associations of compound 2-2+Cobimetinib and hydroxychloroquine+Cobimetinib were evaluated according to the Bliss independence model using MacSynergy™ II for their respective capacities to inhibit the growth of intrahepatic cholangiocarcinoma cell line HuCCT1 (Table 7).

[4] = test system: intrahepatic cholangiocarcinoma cell line HuCCT1 (KRAS G12D); assay: Combination effect of binary drug-drug associations on HuCCT1 cell viability, Loewe additivity model (SynergyFinder); assay type: cell-based; settings: growth inhibition of HuCCT1
Method: The HuCCT1 cell viability assay with binary drug-drug association was performed as described in example 1. The drug-drug binary associations of compounds 2-2+Trametinib and HCQ+Trametinib were tested in a checkerboard fashion in Greiner Bio-one pClear® 96-well plates (Dutscher #655098). The concentration ranges were selected nearby and surrounding the IC50 values of each individual compound. Compound 2-2 in combination with Trametinib was tested at 1.28 μM, 1.6 μM, 2.0 μM, 2.5 μM and 3.125 μM. HCQ [747-36-4] in combination with Trametinib was tested at 15 μM, 20 μM, 30 μM, 45 μM, 60 μM. […] The combination effects of both binary drug-drug association compound 2-2+Trametinib and HCQ+Trametinib were analyzed with two softwares: MacSynergy™ II (1) and SynergyFinder. […]
The combination effects of the drug-drug associations of compound 2-2+Trametinib (Table 2) and HCQ+Trametinib (Table 3) were evaluated according to the Loewe additivity model using SynergyFinder for their respective capacities to inhibit the growth of intra-hepatic cholangiocarcinoma cell line HuCCT1.
The HuCCT1 cell viability assay with binary drug-drug association was performed as described in example 1. […] The combination effects of both binary drug-drug association compound 2-2+Cobimetinib and HCQ+Cobimetinib were analyzed with two softwares: MacSynergy™ II (1) and SynergyFinder (2). […]

SMILES | cytotoxic activity against HuCCT1 [1] | IC50 [2] [nM] | combination effect when associated with Cobimetinib, Bliss model [3] | combination effect when associated with Trametinib [3] | combination effect when associated with Cobimetinib, Loewe model [4] | combination effect when associated with a MEK inhibitor (e.g., Trametinib, Cobimetinib), Bliss independence model [3] | cytotoxic activity against HuCCT1 ([2]; HuCCT1, 72 hours)
CC(=O)Nc1cccc(-n2c(=O)n(C3CC3)c(=O)c3c(Nc4ccc(I)cc4F)n(C)c(=O)c(C)c32)c1 [Trametinib] | dose-response cytotoxic activity | 310 ± 260 | – | – | – | – | –
CCN(CCO)CCCC(C)Nc1ccnc2cc(Cl)ccc12 (stereo not drawn) [Hydroxychloroquine, hydroxychloroquine sulfate] | dose-response cytotoxic activity | 27200 ± 1200 | minor synergy without significant impact in vivo | only an additive effect | overall additive effect | – | –
CC(C)(C)NC1CCN(c2cc(NCc3ccc(Cl)cc3)nc3ccccc23)CC1 [Compound 2-2, 2-(4-chlorobenzylamino)-4-(4-tert-butylaminopiperidin-1-yl)-quinoline] | – | 2200 ± 200 | significant synergy combination effect | significant synergy combination effect | overall additive effect | significant synergy combination effect | dose-response cytotoxic activity
O=C(c1ccc(F)c(F)c1Nc1ccc(I)cc1F)N1CC(O)([C@@H]2CCCCN2)C1 [Cobimetinib] | dose-response cytotoxic activity | 1200 ± 800 | – | – | – | – | –
